Assay results: patent publication US10150760B2, “Compounds for use in preparing heterocyclic triazole agonists of the APJ receptor” (AMGEN INC., priority 2016, dated 2018)

Molecular target: human APJ receptor (Homo sapiens (Human), UniProt P35414)
Assay: [35S]GTPγS binding assay on membranes from CHO cells stably expressing human APJ receptor
Type: biochemical
Conditions: read-out: Activity hAPJ SPA EC50 IP
Experimental: The human APJ receptor was cloned by polymerase chain reaction and the gene encoding the receptor was subcloned in pFLAG-CMV™-3 expression vector (Sigma, Saint Louis, Mo. USA) in-house at Amgen. A GTPγS binding assay was performed on membranes prepared from CHO cells stably expressing human APJ receptor. The optimum experimental conditions for the concentrations of GDP, MgCl2, and NaCl in the assay buffer were initially determined. The assay was performed in assay buffer [20 mM HEPES, pH 7.5, 5 mM MgCl2, and 0.1% (w/v) BSA with 200 mM NaCl, 3 μM GDP] and membranes expressing human APJ receptor/well along with WGA PS beads. The reaction was initiated by addition of 0.2 nM [^35S]GTPγS (Perkin Elmer Life and Analytical Sciences, Waltham USA) in the absence or presence of various ligands and incubated at RT for 90 min. Nonspecific binding was determined in the presence of 100 μM GTPγS and was always less than 0.2% of total binding. All the results presented are means of several independent experiments and analyzed by non-linear regression methods using commercially available program Prism (GraphPad, San Diego, Calif.) to obtain EC50 detailed in Table 38.

Sequence of human APJ receptor (P35414 whole entry): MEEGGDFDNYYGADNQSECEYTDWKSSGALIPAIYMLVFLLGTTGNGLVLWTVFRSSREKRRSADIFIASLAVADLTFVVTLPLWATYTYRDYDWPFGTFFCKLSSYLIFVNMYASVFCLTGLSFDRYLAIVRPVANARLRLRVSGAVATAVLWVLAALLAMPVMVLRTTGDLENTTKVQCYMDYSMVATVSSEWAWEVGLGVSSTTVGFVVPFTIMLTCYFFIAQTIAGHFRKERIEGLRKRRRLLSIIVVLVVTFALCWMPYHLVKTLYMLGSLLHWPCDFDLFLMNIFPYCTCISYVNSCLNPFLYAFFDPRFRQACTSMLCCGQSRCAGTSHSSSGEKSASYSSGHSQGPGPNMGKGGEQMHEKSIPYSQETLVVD

Structure (SMILES) | EC50 [nM]
COc1ncnc(OC)c1-n1c(NS(=O)(=O)[C@@H](C)[C@H](C)c2ccc(Cl)cn2)nnc1[C@@H]1CCOC1 (single isomer, unassigned) [Example 37.0, (2S,3R)-3-(5-chloro-2-pyridinyl)-N-(4-(4,6-dimethoxy-5-pyrimidinyl)-5-((3S)-tetrahydro-3-furanyl)-4H-1,2,4-triazol-3-yl)-2-butanesulfonamide or (2S,3R)-3-(5-chloro-2-pyridinyl)-N-(4-(4,6-dimethoxy-5-pyrimidinyl)-5-((3R)-tetrahydro-3-furanyl)-4H-1,2,4-triazol-3-yl)-2-butanesulfonamide] | 12
COc1ncnc(OC)c1-n1c(NS(=O)(=O)[C@@H](C)[C@H](C)c2ccc(Cl)cn2)nnc1[C@H]1CCOC1 (single isomer, unassigned) [Example 38.0, (2S,3R)-3-(5-chloro-2-pyridinyl)-N-(4-(4,6-dimethoxy-5-pyrimidinyl)-5-((3R)-tetrahydro-3-furanyl)-4H-1,2,4-triazol-3-yl)-2-butanesulfonamide or (2S,3R)-3-(5-chloro-2-pyridinyl)-N-(4-(4,6-dimethoxy-5-pyrimidinyl)-5-((3S)-tetrahydro-3-furanyl)-4H-1,2,4-triazol-3-yl)-2-butanesulfonamide] | 19
COc1cccc(OC)c1-n1c(NS(=O)(=O)[C@@H](C)[C@H](C)c2ncc(Cl)cn2)nnc1[C@@H]1COCCO1 (single isomer, unassigned) [Example 39.0, (2S,3R)-3-(5-chloro-2-pyrimidinyl)-N-(4-(2,6-dimethoxyphenyl)-5-((2R)-1,4-dioxan-2-yl)-4H-1,2,4-triazol-3-yl)-2-butanesulfonamide or (2S,3R)-3-(5-chloro-2-pyrimidinyl)-N-(4-(2,6-dimethoxyphenyl)-5-((2S)-1,4-dioxan-2-yl)-4H-1,2,4-triazol-3-yl)-2-butanesulfonamide] | 5.3
COc1cccc(OC)c1-n1c(NS(=O)(=O)[C@@H](C)[C@H](OC)c2ncc(Cl)cn2)nnc1[C@H]1CCCO1 (single isomer, unassigned) [Example 52.0, (1R,2S)-1-(5-chloropyrimidin-2-yl)-N-(4-(2,6-dimethoxyphenyl)-5-((R)-tetrahydrofuran-2-yl)-4H-1,2,4-triazol-3-yl)-1-methoxypropane-2-sulfonamide or (1R,2S)-1-(5-chloropyrimidin-2-yl)-N-(4-(2,6-dimethoxyphenyl)-5-((S)-tetrahydrofuran-2-yl)-4H-1,2,4-triazol-3-yl)-1-methoxypropane-2-sulfonamide] | 20
COc1cccc(OC)c1-n1c(NS(=O)(=O)[C@@H](C)[C@H](C)c2ncc(C)cn2)nnc1[C@H]1CCOC1 (single isomer, unassigned) [Example 54.0, (2S,3R)-N-(4-(2,6-dimethoxyphenyl)-5-((R)-tetrahydrofuran-3-yl)-4H-1,2,4-triazol-3-yl)-3-(5-methylpyrimidin-2-yl)butane-2-sulfonamide or (2S,3R)-N-(4-(2,6-dimethoxyphenyl)-5-((S)-tetrahydrofuran-3-yl)-4H-1,2,4-triazol-3-yl)-3-(5-methylpyrimidin-2-yl)butane-2-sulfonamide] | 37
COc1cccc(OC)c1-n1c(NS(=O)(=O)[C@@H](C)[C@H](C)c2ncc(C)cn2)nnc1[C@H]1CCOC1 (single isomer, unassigned) [Example 55.0, (2S,3R)-N-(4-(2,6-dimethoxyphenyl)-5-((R)-tetrahydrofuran-3-yl)-4H-1,2,4-triazol-3-yl)-3-(5-methylpyrimidin-2-yl)butane-2-sulfonamide or (2S,3R)-N-(4-(2,6-dimethoxyphenyl)-5-((S)-tetrahydrofuran-3-yl)-4H-1,2,4-triazol-3-yl)-3-(5-methylpyrimidin-2-yl)butane-2-sulfonamide] | 66
COc1cccc(OC)c1-n1c(NS(=O)(=O)[C@@H](C)[C@H](C)c2ncc(C)cn2)nnc1[C@H]1CCCOC1 (single isomer, unassigned) [Example 58.0, (2S,3R)-N-(4-(2,6-dimethoxyphenyl)-5-((R)-tetrahydro-2H-pyran-3-yl)-4H-1,2,4-triazol-3-yl)-3-(5-methylpyrimidin-2-yl)butane-2-sulfonamide or (2S,3R)-N-(4-(2,6-dimethoxyphenyl)-5-((S)-tetrahydro-2H-pyran-3-yl)-4H-1,2,4-triazol-3-yl)-3-(5-methylpyrimidin-2-yl)butane-2-sulfonamide] | 120
COc1cccc(OC)c1-n1c(NS(=O)(=O)[C@@H](C)[C@H](C)c2ncc(C)cn2)nnc1[C@H]1CCCOC1 (single isomer, unassigned) [Example 59.0, (2S,3R)-N-(4-(2,6-dimethoxyphenyl)-5-((R)-tetrahydro-2H-pyran-3-yl)-4H-1,2,4-triazol-3-yl)-3-(5-methylpyrimidin-2-yl)butane-2-sulfonamide or (2S,3R)-N-(4-(2,6-dimethoxyphenyl)-5-((S)-tetrahydro-2H-pyran-3-yl)-4H-1,2,4-triazol-3-yl)-3-(5-methylpyrimidin-2-yl)butane-2-sulfonamide] | 16
COc1cccc(OC)c1-n1c(NS(=O)(=O)[C@@H](C)[C@H](C)c2ncc(Cl)cn2)nnc1[C@H]1CCCOC1 (single isomer, unassigned) [Example 62.0, (2S,3R)-3-(5-chloropyrimidin-2-yl)-N-(4-(2,6-dimethoxyphenyl)-5-((R)-tetrahydro-2H-pyran-3-yl)-4H-1,2,4-triazol-3-yl)butane-2-sulfonamide or (2S,3R)-3-(5-chloropyrimidin-2-yl)-N-(4-(2,6-dimethoxyphenyl)-5-((S)-tetrahydro-2H-pyran-3-yl)-4H-1,2,4-triazol-3-yl)butane-2-sulfonamide] | 26
COc1cccc(OC)c1-n1c(NS(=O)(=O)[C@@H](C)[C@H](OC)c2ncc(Cl)cn2)nnc1[C@H]1CCCOC1 (single isomer, unassigned) [Example 64.0, (1R,2S)-1-(5-chloropyrimidin-2-yl)-N-(4-(2,6-dimethoxyphenyl)-5-((R)-tetrahydro-2H-pyran-3-yl)-4H-1,2,4-triazol-3-yl)-1-methoxypropane-2-sulfonamide or (1R,2S)-1-(5-chloropyrimidin-2-yl)-N-(4-(2,6-dimethoxyphenyl)-5-((S)-tetrahydro-2H-pyran-3-yl)-4H-1,2,4-triazol-3-yl)-1-methoxypropane-2-sulfonamide] | 29
COc1cccc(OC)c1-n1c(NS(=O)(=O)[C@@H](C)[C@@H](OC(C)C)c2cnc(C)cn2)nnc1[C@H]1CCCO1 (single isomer, unassigned) [Example 66.0] | 6.9
COc1cccc(OC)c1-n1c(NS(=O)(=O)[C@@H](C)[C@@H](OC(C)C)c2cnc(C)cn2)nnc1[C@H]1CCCO1 (single isomer, unassigned) [Example 67.0] | 180
COc1cccc(OC)c1-n1c(NS(=O)(=O)[C@@H](C)[C@H](C)c2ncc(Cl)cn2)nnc1[C@H]1OCC[C@H]1C (single isomer, unassigned) [Example 68.0, (2S,3R)-3-(5-chloropyrimidin-2-yl)-N-(4-(2,6-dimethoxyphenyl)-5-((2S,3R)-3-methyltetrahydrofuran-2-yl)-4H-1,2,4-triazol-3-yl)butane-2-sulfonamide or (2S,3R)-3-(5-chloropyrimidin-2-yl)-N-(4-(2,6-dimethoxyphenyl)-5-((2R,3S)-3-methyltetrahydrofuran-2-yl)-4H-1,2,4-triazol-3-yl)butane-2-sulfonamide] | 14
COc1ncnc(OC)c1-n1c(NS(=O)(=O)[C@@H](C)[C@H](C)c2ncc(C)cn2)nnc1[C@H]1CCCO1 (single isomer, unassigned) [Example 69.0, (2S,3R)-N-(4-(4,6-dimethoxypyrimidin-5-yl)-5-((S)-tetrahydrofuran-2-yl)-4H-1,2,4-triazol-3-yl)-3-(5-methylpyrimidin-2-yl)butane-2-sulfonamide or (2S,3R)-N-(4-(4,6-dimethoxypyrimidin-5-yl)-5-((R)-tetrahydrofuran-2-yl)-4H-1,2,4-triazol-3-yl)-3-(5-methylpyrimidin-2-yl)butane-2-sulfonamide] | 82
COc1ncnc(OC)c1-n1c(NS(=O)(=O)[C@@H](C)[C@H](C)c2ncc(C)cn2)nnc1[C@H]1CCCO1 (single isomer, unassigned) [Example 70.0, (2S,3R)-N-(4-(4,6-dimethoxypyrimidin-5-yl)-5-((S)-tetrahydrofuran-2-yl)-4H-1,2,4-triazol-3-yl)-3-(5-methylpyrimidin-2-yl)butane-2-sulfonamide or (2S,3R)-N-(4-(4,6-dimethoxypyrimidin-5-yl)-5-((R)-tetrahydrofuran-2-yl)-4H-1,2,4-triazol-3-yl)-3-(5-methylpyrimidin-2-yl)butane-2-sulfonamide] | 15
COc1cccc(OC)c1-n1c(NS(=O)(=O)[C@@H](C)[C@H](C)c2ncc(C)cn2)nnc1[C@H]1OCC[C@H]1C (single isomer, unassigned) [Example 71.0, (2S,3R)-N-(4-(2,6-dimethoxyphenyl)-5-((2R,3S)-3-methyltetrahydrofuran-2-yl)-4H-1,2,4-triazol-3-yl)-3-(5-methylpyrimidin-2-yl)butane-2-sulfonamide or (2S,3R)-N-(4-(2,6-dimethoxyphenyl)-5-((2S,3R)-3-methyltetrahydrofuran-2-yl)-4H-1,2,4-triazol-3-yl)-3-(5-methylpyrimidin-2-yl)butane-2-sulfonamide] | 450
